From PubChem BioAssay (NCI)
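A five-concentration, 48-hour dose response in 96-well plates underlies each endpoint, interpolated linearly between surrounding concentrations. GI50 is the concentration that inhibits growth by half. TGI denotes the concentration required for complete inhibition of growth.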

Key:
Assay in all cases: growth of human tumour cells (NCI), 48 h
[1] = tested on: NCI-H23 lung
[2] = tested on: M14 melanoma
[3] = tested on: NCI-H226 lung
[4] = tested on: KM12 colon
[5] = tested on: HCT-116 colon
[6] = tested on: NCI-H460 lung
[7] = tested on: HCC-2998 colon
[8] = tested on: U251 CNS
[9] = tested on: A549 NSCLC

| SMILES | TGI [1] [µM] | TGI [2] [µM] | TGI [3] [µM] | TGI [4] [µM] | TGI [5] [µM] | TGI [6] [µM] | TGI [7] [µM] | TGI [8] [µM] | TGI [9] [µM] | GI50 [1] [µM] | GI50 [2] [µM] | GI50 [3] [µM] | GI50 [4] [µM] | GI50 [5] [µM] | GI50 [6] [µM] | GI50 [7] [µM] | GI50 [8] [µM] | GI50 [9] [µM] |
| --- | --- | --- | --- | --- | --- | --- | --- | --- | --- | --- | --- | --- | --- | --- | --- | --- | --- | --- |
| CSc1nnc2n1-c1ccccc1SCC2 | > 100 | > 100 | > 100 | > 100 | > 100 | > 100 | > 100 | > 100 | > 100 |  |  |  |  |  |  |  |  |  |
| C=C1[C@@H]2CCC(C)(C)[C@H]1CCC(=O)[C@@H]2C(=O)OC | > 100 | > 100 | > 100 |  | > 100 | > 100 | > 100 | > 100 | > 100 |  |  |  |  |  |  |  |  |  |
| CCOC(=O)/C(C#N)=C/c1[nH]c(C)c(C)c1C | > 100 | > 100 | > 100 | > 100 | > 100 | > 100 | > 100 | > 100 | > 100 |  |  |  |  |  |  |  |  |  |
| COc1ccc2nc3c(cc2c1)C(=O)CC(C(F)(F)F)C3 (stereo not given) | > 100 | > 100 | > 100 | > 100 | > 100 | > 100 | 99.1 | > 100 | > 100 | 5.39 | 0.238 | 3.28 | 0.351 | 0.142 | 1.87 | 4.14 | 5.82 | 2.48 |
| NCCCSCC(=O)O | > 100 |  | > 100 | > 100 | > 100 |  | > 100 | > 100 | > 100 |  |  |  |  |  |  |  |  |  |
| C[C@]12CC[C@H](O)CC1CCC[C@@H]2O (stereo not given in full) | > 100 | > 100 |  | > 100 | > 100 | > 100 | > 100 | > 100 | > 100 |  |  |  |  |  |  |  |  |  |
| COc1cccc(/C=N/[N-]C(N)=O)c1[O-].[Cu+2].c1ccncc1 | 45.8 | 31.4 | 44.6 | 35.9 | 32 | 31.9 | > 100 | 32.2 | 34.9 |  |  |  |  |  |  |  |  |  |
| CC1(C)OC(=O)C(c2ccsc2)C(=O)O1 | > 100 | > 100 | > 100 | > 100 | > 100 | > 100 | > 100 | > 100 | > 100 |  |  |  |  |  |  |  |  |  |
| O=c1cc(/C=C/c2ccccc2)c2ccc(O/C(=C\c3ccccc3)c3nc4ccccc4c(=O)o3)cc2o1 | 28.7 | 50.1 |  | > 100 | 36.5 | > 100 | > 100 | > 100 | > 100 |  |  |  |  |  |  |  |  |  |
| Cn1c(=O)ccc2cc(C(=O)c3ccccc3)ccc21 | > 100 | > 100 | 99.7 | > 100 | > 100 | > 100 | > 100 | > 100 | > 100 |  |  |  |  |  |  |  |  |  |
| CCCCCCCCCCCCCCCc1nc(SCC(=O)O)n[nH]1 | > 100 | 42.4 |  | > 100 | > 100 | > 100 | > 100 | 81.2 | > 100 |  |  |  |  |  |  |  |  |  |
| COc1ccc2c(c1)[n+](=O)c(C(=O)C/C(=N\NC(=O)C[N+](C)(C)C)C(=O)Nc1cc(Cl)ccc1Cl)c(C)n2O | > 100 | > 100 | > 100 | > 100 | > 100 | > 100 | > 100 | > 100 | > 100 |  |  |  |  |  |  |  |  |  |
| Nc1c(C(=O)Nc2cccc3ccccc23)sc2nc3c(cc12)CCCCCC3 | > 50 | > 50 | > 50 | > 50 | > 50 | > 50 | > 50 | > 50 | > 50 | 1.97 | 1.05 | 5.5 | 1.39 | 1.72 | 1.76 | 2.64 | 1.87 | 2.54 |
| O=C1OC(=O)C2C1C1(c3ccccc3)OC2(c2ccccc2)c2c(Br)c(Br)c(Br)c(Br)c21 (stereo not given) | > 100 | > 100 | > 100 | > 100 | > 100 | > 100 |  | > 100 | > 100 |  |  |  |  |  |  |  |  |  |
| Cn1c(=O)c2nc3sc4ccccc4c(=N)n3c2n(C)c1=O | > 100 |  | > 100 | > 100 |  | > 100 | > 100 |  | > 100 |  |  |  |  |  |  |  |  |  |
| Fc1cccc(C2SCc3nc4ccccc4n32)c1 (stereo not given) | > 100 |  | > 100 | > 100 | > 100 | > 100 | > 100 |  | > 100 |  |  |  |  |  |  |  |  |  |
| O=c1c2ccc(Br)cc2nc(-c2ccccc2)n1NC1OC(CO)C(O)C(O)C1O (stereo not given) | > 100 | > 100 | > 100 | > 100 | > 100 | > 100 | > 100 | > 100 | > 100 |  |  |  |  |  |  |  |  |  |

| SMILES | TGI [1] [µM] | TGI [2] [µM] | TGI [3] [µM] | TGI [4] [µM] | TGI [5] [µM] | TGI [6] [µM] | TGI [7] [µM] | TGI [8] [µM] | TGI [9] [µM] | GI50 [1] [µM] | GI50 [2] [µM] | GI50 [3] [µM] | GI50 [4] [µM] | GI50 [5] [µM] | GI50 [6] [µM] | GI50 [7] [µM] | GI50 [8] [µM] | GI50 [9] [µM] |
| --- | --- | --- | --- | --- | --- | --- | --- | --- | --- | --- | --- | --- | --- | --- | --- | --- | --- | --- |
| COc1cc(C2C(C(=O)Nc3ccccc3C)=C(C)NC(C)=C2C(=O)Nc2ccccc2C)ccc1O | > 100 | > 100 | > 100 | > 100 | > 100 | > 100 | > 100 | > 100 | > 100 |  |  |  |  |  |  |  |  |  |
| CN=C(NC#N)NCc1ccccc1 | > 100 | > 100 | > 100 | > 100 | > 100 | > 100 | > 100 | > 100 | > 100 |  |  |  |  |  |  |  |  |  |
| CC(=O)NC1C(OCc2ccccc2)OC(COC(=O)CCCCCCCCCCNC(=O)CCNc2ccc([N+](=O)[O-])c3[nH]c4ccc(O)cc4c(=O)c23)C(O)C1OC(C)C(=O)N[C@H](C(=O)N[C@H](CCC(=O)O)C(N)=O)C(C)C (stereo not given in full) | > 100 | > 100 | > 100 | > 100 | > 100 | > 100 | > 100 | > 100 | > 100 |  |  |  |  |  |  |  |  |  |
| CC(=O)c1ccc(-c2ccc(C(C)=O)s2)s1 | > 100 | > 100 | > 100 | > 100 | > 100 | > 100 | > 100 | > 100 | > 100 |  |  |  |  |  |  |  |  |  |
| O=C(NCCOCCO)c1ccc(O)cc1 | > 100 | > 100 |  |  | > 100 | > 100 |  | > 100 | > 100 |  |  |  |  |  |  |  |  |  |
| O=C1C2Cc3ccccc3CN2C(=O)N1CCN1CCOCC1 (stereo not given) | > 100 | > 100 | > 100 | > 100 |  | > 100 | > 100 | > 100 | > 100 |  |  |  |  |  |  |  |  |  |
| Nc1c(-c2ccc(-c3c(N)[n+]([O-])c4ccccc4[n+]3[O-])cc2)[n+]([O-])c2ccccc2[n+]1[O-] | 21.1 | 35.1 | 45 | 23.6 |  | 37.3 | 29.6 | 39.6 | 51.9 |  |  |  |  |  |  |  |  |  |
| O=C1OC(/C=C/c2ccccc2)C(=O)C1=O (stereo not given) | > 100 | > 100 | > 100 | > 100 |  | > 100 | > 100 | > 100 | > 100 |  |  |  |  |  |  |  |  |  |
| CCN(CC)[C@@H]1c2cc3c(cc2C(c2cc(OC)c(O)c(OC)c2)C2C(=O)CO[C@@H]21)OCO3 (stereo not given in full) | > 100 | > 100 | > 100 | > 100 | > 100 | > 100 | > 100 | > 100 | > 100 |  |  |  |  |  |  |  |  |  |
| COC(=O)C1=CCS(=O)(=O)C1 | > 100 | > 100 | > 100 | > 100 | > 100 | > 100 | > 100 |  | > 100 |  |  |  |  |  |  |  |  |  |
| OCC1C2C=CC(O2)[C@H]1CO (stereo not given in full) |  | > 100 | > 100 | > 100 | > 100 | > 100 | > 100 | > 100 | > 100 |  |  |  |  |  |  |  |  |  |
| O=C(c1ccccc1)C(c1ccccc1)C1(O)C(=O)Nc2ccc(Br)cc21 (stereo not given) | > 100 | > 100 | > 100 | > 100 | > 100 | > 100 | > 100 | > 100 | > 100 |  |  |  |  |  |  |  |  |  |
| CCC1(O)CC(c2ccccc2)N(C)C(c2ccccc2)C1 (stereo not given) | > 100 | > 100 | > 100 | > 100 | > 100 | > 100 | > 100 | > 100 | > 100 |  |  |  |  |  |  |  |  |  |
| COc1ccc(/C=C\c2cc(OC)c(OC(C)=O)c(OC)c2)cc1 | 63.4 | 92.2 | > 100 | 61.2 | > 100 |  | 36.7 | 23.1 | 78 |  |  |  |  |  |  |  |  |  |
| OC1/C(=C/c2ccccc2)CNC/C1=C\c1ccccc1 (stereo not given) |  | > 100 |  | > 100 | > 100 | > 100 | > 100 | > 100 | > 100 |  |  |  |  |  |  |  |  |  |
| OC1OC2COC(c3ccccc3)OC2C(O)C1O (stereo not given) | > 100 | > 100 | > 100 | > 100 | > 100 | > 100 | > 100 | > 100 | > 100 |  |  |  |  |  |  |  |  |  |
| Cc1ccc(Sc2cc([N+](=O)[O-])cc(Sc3ccc(C)cc3)c2Sc2ccc(C)cc2)cc1 |  | > 100 | > 100 | > 100 | > 100 | > 100 | > 100 | > 100 | > 100 |  |  |  |  |  |  |  |  |  |
